Reference: patent US7348161B2, “Macrolide efflux genetic assembly” (Emory University, priority 2001, dated 2008)
≈ marks a conversion by molar mass, not a printed value. One block for each compound: values may come before it. Numbered stars: 1 amine (or outer) side, 2 acyl side, 3 side chain; on linkers, the order of the positions; unused ones are H or OH. Bridge positions count the residues as written; N and C are the ends. Square brackets hold non-standard residues; d marks the D form. Peptide text beside a SMILES is read from it. * marks the point of attachment. X1 = O=C1C[C@@H](C(=O)[*:2])N([*:1])C[C@H]1CS[C@@H]1CN2CCC1CC2; NMePhe(4-NMe2) = CN[C@@H](Cc1ccc(N(C)C)cc1)C(=O)O; Picolinoyl(3-OH) = O=C(c1ncccc1O)*; Phg = N[C@H](C(=O)O)c1ccccc1; dAbu = CC[C@@H](N)C(=O)O

Columns and labels:
MefE = conditions: proton motive function of MefE; refs [9,10]; cited from earlier work
S. pneumoniae isolates = assay: Antimicrobial susceptibility (NCCLS guidelines) of invasive S. pneumoniae isolates; format: cell-based; conditions: Streptococcus pneumoniae
[1] = system: pneumococci containing ermAM; conditions: typical value; cited from earlier work
[2] = system: invasive pneumococcal isolates; assay: Preliminary screening of 1998 invasive pneumococcal isolates for quinupristin resistance; format: cell-based, S. pneumoniae

Compound: N#CC(C#N)=NNc1cccc(Cl)c1 [carbonylcyanide-m-chlorophenylhydrazone]
- Effect on efflux of [14C]-erythromycin (MefE): decrease in the efflux

- MIC (S. pneumoniae isolates; eighty-nine mefE-containing isolates, January 1994 to February 1996): ≥ 4 µg/mL
- MIC (S. pneumoniae isolates; subset of 336 erythromycin-resistant isolates, 1994-1996 and 1998): 4 µg/mL (≈ 5.45 µM)
Compound: CC[C@H]1OC(=O)[C@H](C)[C@@H](O[C@H]2C[C@@](C)(OC)[C@@H](O)[C@H](C)O2)[C@H](C)[C@@H](O[C@@H]2O[C@H](C)C[C@H](N(C)C)[C@H]2O)[C@](C)(O)C[C@@H](C)C(=O)[C@H](C)[C@@H](O)[C@]1(C)O [erythromycin]
- Erythromycin MIC [1]: 64 µg/mL

Compound: CC[C@H]1NC(=O)[C@@H](NC(=O)c2ncccc2O)[C@@H](C)OC(=O)[C@H](c2ccccc2)NC(=O)[C@@H]2CC(=O)[C@H](CS[C@@H]3CN4CCC3CC4)CN2C(=O)[C@H](Cc2ccc(N(C)C)cc2)N(C)C(=O)[C@@H]2CCCN2C1=O [quinupristin] ({Picolinoyl(3-OH)}-T[dAbu]P[NMePhe(4-NMe2)][X1][Phg]; ester 1-C)
- Share of isolates resistant [2]: approximately half were resistant

Compound: arsenate
- Effect on efflux of [14C]-erythromycin (MefE): decrease in the efflux
